For one assay, the target named is T1, human type 1 glycine transporter (GlyT1) (Homo sapiens, UniProt P48067).
T1 construct: T98G cells (glioma cells) expressing human type 1 glycine transporter (GlyT1) were used; endogenous in cells; host or cells: T98G cells (human glioma cells)
T1 sequence (P48067 1-706): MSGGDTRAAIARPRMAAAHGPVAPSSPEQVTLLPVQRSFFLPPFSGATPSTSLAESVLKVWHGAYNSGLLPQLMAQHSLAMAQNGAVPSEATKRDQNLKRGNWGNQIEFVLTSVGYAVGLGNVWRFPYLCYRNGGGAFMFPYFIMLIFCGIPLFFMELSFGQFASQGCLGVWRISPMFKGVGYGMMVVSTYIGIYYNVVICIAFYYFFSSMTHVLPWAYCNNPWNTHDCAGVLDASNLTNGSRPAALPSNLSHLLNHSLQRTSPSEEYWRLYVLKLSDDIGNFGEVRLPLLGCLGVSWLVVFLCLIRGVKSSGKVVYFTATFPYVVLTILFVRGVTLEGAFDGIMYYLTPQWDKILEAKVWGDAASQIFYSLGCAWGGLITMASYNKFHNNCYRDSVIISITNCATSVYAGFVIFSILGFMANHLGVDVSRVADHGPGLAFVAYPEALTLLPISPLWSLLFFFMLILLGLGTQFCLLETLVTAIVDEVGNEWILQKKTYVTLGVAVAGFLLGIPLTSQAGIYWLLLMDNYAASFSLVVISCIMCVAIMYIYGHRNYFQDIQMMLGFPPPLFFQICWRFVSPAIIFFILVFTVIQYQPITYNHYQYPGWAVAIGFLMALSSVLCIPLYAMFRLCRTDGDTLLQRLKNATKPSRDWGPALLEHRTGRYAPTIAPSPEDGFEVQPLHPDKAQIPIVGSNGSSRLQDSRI
Kind of assay: Glycine uptake inhibition experiment ([3H] glycine uptake in T98G cells expressing GlyT1). The assay is classed as cell-based.
Conditions: not given
How it is done: Glycine Uptake Inhibition Experiment
A glycine uptake experiment was conducted in accordance with the method published in Neuron, 8, 927-935, 1992. In the experiment, T98G cells (glioma cells) expressing human type 1 glycine transporter (GlyT1) were used. The T98G cells were seeded in a 96-well plate at 2.0×10^4 cells/well and cultured overnight in a CO2 incubator. The test substance was dissolved in a 100% DMSO solution and then dissolved in a 10 mM HEPES buffer solution (pH 7.4) containing 150 mM sodium chloride, 1 mM calcium chloride, 5 mM potassium chloride, 1 mM magnesium chloride, 10 mM glucose and 0.2% bovine serum albumin. After removing the cell culture medium, the test substance was subjected to a 10-min pretreatment. Subsequently, the test substance and [^3H] glycine (final concentration: 250 nM) were added to the cells and reaction was performed at room temperature for 15 minutes. After the end of the reaction, the extracellular fluid was aspirated with a manifold to remove excess labeled glycine present outside the cells, and then the cells were lysed with a 0.5 M aqueous sodium hydroxide solution. The glycine content in the cells was determined by measuring the radioactivity in the cell lysate with a liquid scintillation counter. Glycine uptake in the presence of 10 μM ALX5407 was defined as non-specific uptake, and the value calculated by subtracting the amount of the non-specific uptake from the total uptake in the absence of 10 μM ALX5407 was defined as specific uptake. In addition, glycine uptake inhibitory activity (IC50 value) was calculated from an inhibition curve at the concentrations of each test substance ranging from 10^−9 to 10^−5 M. It should be noted that ALX5407 is an HCl salt of N-[(3R)-3-([1,1′-biphenyl]-4-yloxy)-3-(4-fluorophenyl)propyl]-N-methylglycine.
In turn, `C[C@H](O)c1cccc2c1C(F)(F)C(=O)N2Cc1cc(C#N)ncc1F` [Compound 188, 4-({3,3-difluoro-4-[(1S)-1-hydroxyethyl]-2-oxo-2,3-dihydro-1H-indol-1-yl}methyl)-5-fluoropyridine-2-carbonitrile] came in with an IC50 of 0.062 µM.

In the case of `O=C1N(Cc2ccnc(OC(F)F)c2)c2cccc(C(O)C(F)F)c2C1(F)F` (single isomer, unassigned) [Compound 218, 4-(2,2-difluoro-1-hydroxyethyl)-1-{[2-(difluoromethoxy)pyridin-4-yl]methyl}-3,3-difluoro-1,3-dihydro-2H-indol-2-one], the IC50 came out at 0.01 µM.

The compound `C[C@H](O)c1cccc2c1C(F)(F)C(=O)N2Cc1ccc(C#N)nc1` [Compound 201, 5-({3,3-difluoro-4-[(1S)-1-hydroxyethyl]-2-oxo-2,3-dihydro-1-indol-1-yl}methyl)pyridine-2-carbonitrile] yielded an IC50 of 0.83 µM.

`N#Cc1nc(CN2C(=O)C(F)(F)c3c(C(O)C(F)F)cccc32)ccc1F` (single isomer, unassigned) [Compound 275, 6-{[4-(2,2-difluoro-1-hydroxyethyl)-3,3-difluoro-2-oxo-2,3-dihydro-1H-indol-1-yl]methyl}-3-fluoropyridine-2-carbonitrile] had an IC50 of 0.0091 µM.

With `COc1nc(CN2C(=O)C(F)(F)c3c([C@H](C)O)cccc32)ccc1Cl` [Compound 249, 1-[(5-chloro-6-methoxypyridin-2-yl)methyl]-3,3-difluoro-4-[(1S)-1-hydroxyethyl]-1,3-dihydro-2H-indol-2-one], half-maximal inhibition (IC50) was put at 0.058 µM. This IC50 is about 6.4-fold higher than that of the compound before.

In turn, `COc1ncc(CN2C(=O)C(F)(F)c3c([C@H](C)O)cccc32)cc1Cl` [Compound 222, 1-[(5-chloro-6-methoxypyridin-3-yl)methyl]-3,3-difluoro-4-[(1S)-1-hydroxyethyl)-1,3-dihydro-2H-indol-2-one] showed a half-maximal inhibitory concentration (IC50) of 0.0086 µM.

The assay is the same for the next values; noted with them: glycine uptake inhibition.
For the compound `C[C@H](O)c1cccc2c1C(F)(F)C(=O)N2Cc1ccnc(C(F)F)c1` [Compound 117, 1-{[2-(difluoromethyl)pyridin-4-yl]methyl}-3,3-difluoro-4-[(1S)-1-hydroxyethyl]-1,3-dihydro-2H-indol-2-one], the IC50 came out at 0.031 µM.

Regarding `C[C@H](O)c1cccc2c1C(F)(F)C(=O)N2Cc1ccc(Cl)nc1` [Compound 102, 1-[(6-chloropyridin-3-yl)methyl]-3,3-difluoro-4-[(1S)-1-hydroxyethyl]-1,3-dihydro-2H-indol-2-one], the IC50 is 0.091 µM.

Compound `C[C@H](O)c1cccc2c1C(F)(F)C(=O)N2Cc1ccc(C(F)F)cn1` [Compound 131, 1-{[5-(difluoromethyl)pyridin-2-yl]methyl)-3,3-difluoro-4-[(1S)-1-hydroxyethyl]-1,3-dihydro-2H-indol-2-one] returned an IC50 of 0.93 µM.

As to `O=C1N(Cc2cccc(F)c2)c2cccc(C(O)C(F)F)c2C1(F)F` (single isomer, unassigned) [Compound 158, 4-(2,2-difluoro-1-hydroxyethyl)-3,3-difluoro-1-(3-fluorobenzyl)-1,3-dihydro-2H-indol-2-one], the 50% inhibitory concentration (IC50) turned out to be 0.016 µM. Compared with the last compound, the IC50 is about 58-fold lower.

`C[C@H](O)c1cccc2c1C(F)(F)C(=O)N2Cc1nc2ccccc2s1` [Compound 73, 1-(1,3-benzothiazol-2-ylmethyl)-3,3-difluoro-4-[(1S)-1-hydroxyethyl]-1,3-dihydro-2H-indol-2-one]: inhibition was half-maximal at 0.037 µM (IC50).

The compound `O=C1N(Cc2cccc(Cl)n2)c2cccc(C(O)C(F)(F)F)c2C1(F)F` (centres unmarked) [Compound 2, 1-[(6-chloropyridin-2-yl)methyl]-3,3-difluoro-4-(2,2,2-trifluoro-1-hydroxyethyl)-1,3-dihydro-2H-indol-2-one] had a half-inhibitory concentration (IC50) of 0.051 µM.

Consider `C[C@H](O)c1cccc2c1C(F)(F)C(=O)N2Cc1cnc2ccccc2n1` [Compound 83, 3,3-difluoro-4-[(1S)-1-hydroxyethyl]-1-(quinoxalin-2-ylmethyl)1,3-dihydro-2H-indol-2-one], for which inhibition was half-maximal at 0.03 µM (IC50). This IC50 lies about 1.7-fold lower than the previous one.

In turn, `C[C@H](O)c1cccc2c1C(F)(F)C(=O)N2Cc1cc2ccoc2cn1` [Compound 125, 3,3-difluoro-1-(furo[2,3-c]pyridin-5-ylmethyl)-4-[(1S)-1-hydroxyethyl]-1,3-dihydro-2H-indol-2-one] showed an IC50 of 0.13 µM.

Turning to `C[C@H](O)c1cccc2c1C(F)(F)C(=O)N2Cc1nc2ccccc2n1C` [Compound 75, 3,3-difluoro-4-[(1S)-1-hydroxyethyl]-1-[(1-methyl-1H-benzimidazol-2-yl)methyl]-1,3-dihydro-2H-indol-2-one], it took 0.034 µM to reach half-maximal inhibition (IC50). Against the preceding compound, the IC50 is about 3.8-fold lower.

`C[C@H](O)c1cccc2c1C(F)(F)C(=O)N2Cc1n[nH]c2ccccc12` [Compound 89, 3,3-difluoro-4-[(1S)-1-hydroxyethyl]-1-(1H-indazol-3-ylmethyl)-1,3-dihydro-2H-indol-2-one] yielded a half-inhibitory concentration (IC50) of 0.19 µM.

As to `Cn1c(=O)c(CN2C(=O)C(F)(F)c3c([C@@H](O)C(F)(F)F)cccc32)nc2ccccc21` [Compound 141, 3-({3,3-difluoro-2-oxo-4-[(1R)-2,2,2-trifluoro-1-hydroxyethyl]-2,3-dihydro-1H-indol-1-yl}methyl)-1-methylquinoxalin-2(1H)-one], the concentration for half-maximal inhibition (IC50) is 0.1 µM.

Regarding `C[C@H](O)c1cccc2c1C(F)(F)C(=O)N2Cc1cccc(F)c1` [Compound 56, 3,3-difluoro-1-(3-fluorobenzyl)-4-[(1S)-1-hydroxyethyl)-1,3-dihydro-2H-indol-2-one], it took 0.0091 µM to reach half-maximal inhibition (IC50).

Take `CC(O)c1cccc2c1C(F)(F)C(=O)N2Cc1ccnc(Cl)c1` (single isomer, unassigned) [Compound 33, 1-[(2-chloropyridin-4-yl)methyl]-3,3-difluoro-4-(1-hydroxyethyl)-1,3-dihydro-2H-indol-2-one]: half-maximal inhibition (IC50) required 0.018 µM.

Compound `N#Cc1cc(CN2C(=O)C(F)(F)c3c(C(O)C(F)(F)F)cccc32)ccn1` (single isomer, unassigned) [Compound 21, 4-{[3,3-difluoro-2-oxo-4-(2,2,2-trifluoro-1-hydroxyethyl)-2,3-dihydro-1H-indol-1-yl]methyl}pyridine-2-carbonitrile] gave an IC50 of 0.071 µM.

For `O=C1N(Cc2cccc(Cl)n2)c2cccc(C(O)CF)c2C1(F)F` (centres unmarked) [Compound 11, 1-[(6-chloropyridin-2-yl)methyl]-3,3-difluoro-4-(2-fluoro-1-hydroxyethyl)-1,3-dihydro-2H-indol-2-one], inhibition was half-maximal at 0.017 µM (IC50).

In turn, `N#Cc1cc(CN2C(=O)C(F)(F)c3c(C(O)C(F)(F)F)cccc32)ccn1` (centres unmarked) [Compound 14, 4-{[3,3-difluoro-2-oxo-4-(2,2,2-trifluoro-1-hydroxyethyl)-2,3-dihydro-1H-indol-1-yl]methyl}pyridine-2-carbonitrile] came in with a half-maximal inhibitory concentration (IC50) of 0.12 µM.

`C[C@H](O)c1cccc2c1C(F)(F)C(=O)N2Cc1ccc2ccccc2n1` [Compound 77, 3,3-difluoro-4-[(1S)-1-hydroxyethyl]-1-(quinolin-2-ylmethyl)-1,3-dihydro-2H-indol-2-one] returned a concentration for half-maximal inhibition (IC50) of 0.037 µM. Compared with the last compound, the IC50 is about 3.2-fold lower.

Take `N#Cc1cccc(CN2C(=O)C(F)(F)c3c(C(O)C(F)(F)F)cccc32)n1` (single isomer, unassigned) [Compound 19, 6-{[3,3-difluoro-2-oxo-4-(2,2,2-trifluoro-1-hydroxyethyl)-2,3-dihydro-1H-indol-1-yl]methyl}pyridine-2-carbonitrile]: half-maximal inhibition (IC50) required 0.06 µM.

As to `O=C1N(Cc2cncc(Cl)c2)c2ccc(F)c(C(O)C(F)(F)F)c2C1(F)F` (centres unmarked) [Compound 48, 1-[(5-chloropyridin-3-yl)methyl]-3,3,5-trifluoro-4-(2,2,2-trifluoro-1-hydroxyethyl)-1,3-dihydro-2H-indol-2-one], the half-maximal inhibitory concentration (IC50) was 0.085 µM.

The assay is the same for the next values; noted with them: table section whose head prints (μm).
The compound `O=C1N(Cc2cccc(C(F)(F)F)n2)c2cccc(C(O)C(F)F)c2C1(F)F` (single isomer, unassigned) [Compound 257, 4-(2,2-difluoro-1-hydroxyethyl)-3,3-difluoro-1-{[6-(trifluoromethyl)pyridin-2-yl]methyl)-1,3-dihydro-2H-indol-2-one] displayed a concentration for half-maximal inhibition (IC50) of 0.11 µM. This lies in the sub-micromolar range.

For orientation: IC50 means the concentration at which inhibition is half-maximal. Read a low IC50 as greater potency in that assay.
